Reference: patent US20230017045A1, “PYRIDINE AND PYRIMIDINE CARBOXYLATE HERBICIDES AND METHODS OF USE THEREOF” (Dow AgroSciences LLC, priority 2017, published 2023)

What follows are compounds tested on test plant species (assay: Post-emergent herbicidal activity test (greenhouse, foliar spray, visual growth reduction)). Conditions: post-emergence, 336 h, ALOMY: blackgrass (Alopecurus myosuroides), 140 g ai/ha, 14 days after application, read-out: Visual Growth Reduction (%) 14 Days After Application, ALOMY.
Format: in vivo
Outline: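 Greenhouse plants at first–second true leaf stage sprayed overhead at 187 L/ha with compound in acetone/water/isopropanol/DMSO/crop oil/X-77 carrier; controls received solvent blank. Injury rated visually after 14 d on a 0–100% scale versus untreated and control plants, converted to growth reduction.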

| SMILES | pest or weed control at 140 g/ha [%] |
| --- | --- |
| COC(=O)c1nc(-c2ncc(Cl)cc2Cl)ccc1Cl [F191, Methyl 3′,5,5′-trichloro-[2,2′-bipyridine]-6-carboxylate] | 0 to 29 |
| C#CCOC(=O)c1nc(-c2ccc(C(F)(F)F)cc2Cl)ccc1Cl [F45, prop-2-yn-1-yl 3-chloro-6-(2-chloro-4-(trifluoromethyl)phenyl)picolinate] | 30 to 44 |
| C#Cc1ccc(-c2ccc(C(F)(F)F)cc2Cl)nc1C(=O)OC [F31, Methyl 6-(2-chloro-4-(trifluoromethyl)phenyl)-3-ethynylpicolinate] | 0 to 29 |

Same assay, conditions: post-emergence, 336 h, AMARE: redroot pigweed (Amaranthus retroflexus), 140 g ai/ha, 14 days after application, read-out: Visual Growth Reduction (%) 14 Days After Application, AMARE

| SMILES | pest or weed control at 140 g/ha [%] |
| --- | --- |
| COC(=O)c1nc(-c2ncc(Cl)cc2Cl)ccc1Cl [F191, Methyl 3′,5,5′-trichloro-[2,2′-bipyridine]-6-carboxylate] | 85 to 94 |
| C#CCOC(=O)c1nc(-c2ccc(C(F)(F)F)cc2Cl)ccc1Cl [F45, prop-2-yn-1-yl 3-chloro-6-(2-chloro-4-(trifluoromethyl)phenyl)picolinate] | 95 to 100 |
| C#Cc1ccc(-c2ccc(C(F)(F)F)cc2Cl)nc1C(=O)OC [F31, Methyl 6-(2-chloro-4-(trifluoromethyl)phenyl)-3-ethynylpicolinate] | 45 to 59 |

Same assay, conditions: post-emergence, 336 h, AVEFA: wild oat (Avena fatua), 140 g ai/ha, 14 days after application, read-out: Visual Growth Reduction (%) 14 Days After Application, AVEFA

| SMILES | pest or weed control at 140 g/ha [%] |
| --- | --- |
| COC(=O)c1nc(-c2ncc(Cl)cc2Cl)ccc1Cl [F191, Methyl 3′,5,5′-trichloro-[2,2′-bipyridine]-6-carboxylate] | 0 to 29 |
| C#CCOC(=O)c1nc(-c2ccc(C(F)(F)F)cc2Cl)ccc1Cl [F45, prop-2-yn-1-yl 3-chloro-6-(2-chloro-4-(trifluoromethyl)phenyl)picolinate] | 45 to 59 |
| C#Cc1ccc(-c2ccc(C(F)(F)F)cc2Cl)nc1C(=O)OC [F31, Methyl 6-(2-chloro-4-(trifluoromethyl)phenyl)-3-ethynylpicolinate] | 0 to 29 |

Same assay, conditions: post-emergence, 336 h, CHEAL: lambsquarters (Chenopodium album), 140 g ai/ha, 14 days after application, read-out: Visual Growth Reduction (%) 14 Days After Application, CHEAL

| SMILES | pest or weed control at 140 g/ha [%] |
| --- | --- |
| COC(=O)c1nc(-c2ncc(Cl)cc2Cl)ccc1Cl [F191, Methyl 3′,5,5′-trichloro-[2,2′-bipyridine]-6-carboxylate] | 95 to 100 |
| C#CCOC(=O)c1nc(-c2ccc(C(F)(F)F)cc2Cl)ccc1Cl [F45, prop-2-yn-1-yl 3-chloro-6-(2-chloro-4-(trifluoromethyl)phenyl)picolinate] | 95 to 100 |
| C#Cc1ccc(-c2ccc(C(F)(F)F)cc2Cl)nc1C(=O)OC [F31, Methyl 6-(2-chloro-4-(trifluoromethyl)phenyl)-3-ethynylpicolinate] | 0 to 29 |

Same assay, conditions: post-emergence, 336 h, CIRAR: canada thistle (Cirsium arvense), 140 g ai/ha, 14 days after application, read-out: Visual Growth Reduction (%) 14 Days After Application, CIRAR

| SMILES | pest or weed control at 140 g/ha [%] |
| --- | --- |
| COC(=O)c1nc(-c2ncc(Cl)cc2Cl)ccc1Cl [F191, Methyl 3′,5,5′-trichloro-[2,2′-bipyridine]-6-carboxylate] | 85 to 94 |
| C#CCOC(=O)c1nc(-c2ccc(C(F)(F)F)cc2Cl)ccc1Cl [F45, prop-2-yn-1-yl 3-chloro-6-(2-chloro-4-(trifluoromethyl)phenyl)picolinate] | 95 to 100 |
| C#Cc1ccc(-c2ccc(C(F)(F)F)cc2Cl)nc1C(=O)OC [F31, Methyl 6-(2-chloro-4-(trifluoromethyl)phenyl)-3-ethynylpicolinate] | 0 to 29 |

Same assay, conditions: post-emergence, 336 h, CYPES: yellow nutsedge (Cyperus esculentus), 140 g ai/ha, 14 days after application, read-out: Visual Growth Reduction (%) 14 Days After Application, CYPES

| SMILES | pest or weed control at 140 g/ha [%] |
| --- | --- |
| COC(=O)c1nc(-c2ncc(Cl)cc2Cl)ccc1Cl [F191, Methyl 3′,5,5′-trichloro-[2,2′-bipyridine]-6-carboxylate] | 45 to 59 |
| C#CCOC(=O)c1nc(-c2ccc(C(F)(F)F)cc2Cl)ccc1Cl [F45, prop-2-yn-1-yl 3-chloro-6-(2-chloro-4-(trifluoromethyl)phenyl)picolinate] | 0 to 29 |
| C#Cc1ccc(-c2ccc(C(F)(F)F)cc2Cl)nc1C(=O)OC [F31, Methyl 6-(2-chloro-4-(trifluoromethyl)phenyl)-3-ethynylpicolinate] | 0 to 29 |

Same assay, conditions: post-emergence, 336 h, DIGSA: crabgrass (Digitaria sanguinalis), 140 g ai/ha, 14 days after application, read-out: Visual Growth Reduction (%) 14 Days After Application, DIGSA

| SMILES | pest or weed control at 140 g/ha [%] |
| --- | --- |
| COC(=O)c1nc(-c2ncc(Cl)cc2Cl)ccc1Cl [F191, Methyl 3′,5,5′-trichloro-[2,2′-bipyridine]-6-carboxylate] | 85 to 94 |
| C#CCOC(=O)c1nc(-c2ccc(C(F)(F)F)cc2Cl)ccc1Cl [F45, prop-2-yn-1-yl 3-chloro-6-(2-chloro-4-(trifluoromethyl)phenyl)picolinate] | 95 to 100 |
| C#Cc1ccc(-c2ccc(C(F)(F)F)cc2Cl)nc1C(=O)OC [F31, Methyl 6-(2-chloro-4-(trifluoromethyl)phenyl)-3-ethynylpicolinate] | 0 to 29 |

Same assay, conditions: post-emergence, 336 h, ECHCG: barnyardgrass (Echinochloa crus-galli), 140 g ai/ha, 14 days after application, read-out: Visual Growth Reduction (%) 14 Days After Application, ECHCG

| SMILES | pest or weed control at 140 g/ha [%] |
| --- | --- |
| COC(=O)c1nc(-c2ncc(Cl)cc2Cl)ccc1Cl [F191, Methyl 3′,5,5′-trichloro-[2,2′-bipyridine]-6-carboxylate] | 75 to 84 |
| C#CCOC(=O)c1nc(-c2ccc(C(F)(F)F)cc2Cl)ccc1Cl [F45, prop-2-yn-1-yl 3-chloro-6-(2-chloro-4-(trifluoromethyl)phenyl)picolinate] | 30 to 44 |
| C#Cc1ccc(-c2ccc(C(F)(F)F)cc2Cl)nc1C(=O)OC [F31, Methyl 6-(2-chloro-4-(trifluoromethyl)phenyl)-3-ethynylpicolinate] | 0 to 29 |

Same assay, conditions: post-emergence, 336 h, IPOHE: ivy-leaf morning glory (Ipomoea hederacea), 140 g ai/ha, 14 days after application, read-out: Visual Growth Reduction (%) 14 Days After Application, IPOHE

| SMILES | pest or weed control at 140 g/ha [%] |
| --- | --- |
| COC(=O)c1nc(-c2ncc(Cl)cc2Cl)ccc1Cl [F191, Methyl 3′,5,5′-trichloro-[2,2′-bipyridine]-6-carboxylate] | 95 to 100 |
| C#Cc1ccc(-c2ccc(C(F)(F)F)cc2Cl)nc1C(=O)OC [F31, Methyl 6-(2-chloro-4-(trifluoromethyl)phenyl)-3-ethynylpicolinate] | 60 to 74 |

Same assay, conditions: post-emergence, 336 h, KCHSC: kochia (Bassia scoparia), 140 g ai/ha, 14 days after application, read-out: Visual Growth Reduction (%) 14 Days After Application, KCHSC

| SMILES | pest or weed control at 140 g/ha [%] |
| --- | --- |
| COC(=O)c1nc(-c2ncc(Cl)cc2Cl)ccc1Cl [F191, Methyl 3′,5,5′-trichloro-[2,2′-bipyridine]-6-carboxylate] | 60 to 74 |
| C#CCOC(=O)c1nc(-c2ccc(C(F)(F)F)cc2Cl)ccc1Cl [F45, prop-2-yn-1-yl 3-chloro-6-(2-chloro-4-(trifluoromethyl)phenyl)picolinate] | 85 to 94 |
| C#Cc1ccc(-c2ccc(C(F)(F)F)cc2Cl)nc1C(=O)OC [F31, Methyl 6-(2-chloro-4-(trifluoromethyl)phenyl)-3-ethynylpicolinate] | 0 to 29 |

Same assay, conditions: post-emergence, 336 h, ORYSA: rice (Oryza sativa), 140 g ai/ha, 14 days after application, read-out: Visual Growth Reduction (%) 14 Days After Application, ORYSA

| SMILES | pest or weed control at 140 g/ha [%] |
| --- | --- |
| COC(=O)c1nc(-c2ncc(Cl)cc2Cl)ccc1Cl [F191, Methyl 3′,5,5′-trichloro-[2,2′-bipyridine]-6-carboxylate] | 0 to 29 |
| C#CCOC(=O)c1nc(-c2ccc(C(F)(F)F)cc2Cl)ccc1Cl [F45, prop-2-yn-1-yl 3-chloro-6-(2-chloro-4-(trifluoromethyl)phenyl)picolinate] | 60 to 74 |
| C#Cc1ccc(-c2ccc(C(F)(F)F)cc2Cl)nc1C(=O)OC [F31, Methyl 6-(2-chloro-4-(trifluoromethyl)phenyl)-3-ethynylpicolinate] | 0 to 29 |

Same assay, conditions: post-emergence, 336 h, SETFA: giant foxtail (Setaria faberi), 140 g ai/ha, 14 days after application, read-out: Visual Growth Reduction (%) 14 Days After Application, SETFA

| SMILES | pest or weed control at 140 g/ha [%] |
| --- | --- |
| COC(=O)c1nc(-c2ncc(Cl)cc2Cl)ccc1Cl [F191, Methyl 3′,5,5′-trichloro-[2,2′-bipyridine]-6-carboxylate] | 85 to 94 |
| C#CCOC(=O)c1nc(-c2ccc(C(F)(F)F)cc2Cl)ccc1Cl [F45, prop-2-yn-1-yl 3-chloro-6-(2-chloro-4-(trifluoromethyl)phenyl)picolinate] | 85 to 94 |
| C#Cc1ccc(-c2ccc(C(F)(F)F)cc2Cl)nc1C(=O)OC [F31, Methyl 6-(2-chloro-4-(trifluoromethyl)phenyl)-3-ethynylpicolinate] | 0 to 29 |

Same assay, conditions: post-emergence, 336 h, SORVU: grain sorghum (Sorghum vulgare), 140 g ai/ha, 14 days after application, read-out: Visual Growth Reduction (%) 14 Days After Application, SORVU

| SMILES | pest or weed control at 140 g/ha [%] |
| --- | --- |
| COC(=O)c1nc(-c2ncc(Cl)cc2Cl)ccc1Cl [F191, Methyl 3′,5,5′-trichloro-[2,2′-bipyridine]-6-carboxylate] | 85 to 94 |
| C#CCOC(=O)c1nc(-c2ccc(C(F)(F)F)cc2Cl)ccc1Cl [F45, prop-2-yn-1-yl 3-chloro-6-(2-chloro-4-(trifluoromethyl)phenyl)picolinate] | 85 to 94 |
| C#Cc1ccc(-c2ccc(C(F)(F)F)cc2Cl)nc1C(=O)OC [F31, Methyl 6-(2-chloro-4-(trifluoromethyl)phenyl)-3-ethynylpicolinate] | 45 to 59 |

Same assay, conditions: post-emergence, 336 h, STEME: common chickweed (Stellaria media), 140 g ai/ha, 14 days after application, read-out: Visual Growth Reduction (%) 14 Days After Application, STEME

| SMILES | pest or weed control at 140 g/ha [%] |
| --- | --- |
| COC(=O)c1nc(-c2ncc(Cl)cc2Cl)ccc1Cl [F191, Methyl 3′,5,5′-trichloro-[2,2′-bipyridine]-6-carboxylate] | 0 to 29 |
| C#CCOC(=O)c1nc(-c2ccc(C(F)(F)F)cc2Cl)ccc1Cl [F45, prop-2-yn-1-yl 3-chloro-6-(2-chloro-4-(trifluoromethyl)phenyl)picolinate] | 75 to 84 |
| C#Cc1ccc(-c2ccc(C(F)(F)F)cc2Cl)nc1C(=O)OC [F31, Methyl 6-(2-chloro-4-(trifluoromethyl)phenyl)-3-ethynylpicolinate] | 0 to 29 |

Same assay, conditions: post-emergence, 336 h, TRZAS: wheat, spring (Triticum aestivum), 140 g ai/ha, 14 days after application, read-out: Visual Growth Reduction (%) 14 Days After Application, TRZAS

| SMILES | pest or weed control at 140 g/ha [%] |
| --- | --- |
| COC(=O)c1nc(-c2ncc(Cl)cc2Cl)ccc1Cl [F191, Methyl 3′,5,5′-trichloro-[2,2′-bipyridine]-6-carboxylate] | 0 to 29 |
| C#CCOC(=O)c1nc(-c2ccc(C(F)(F)F)cc2Cl)ccc1Cl [F45, prop-2-yn-1-yl 3-chloro-6-(2-chloro-4-(trifluoromethyl)phenyl)picolinate] | 85 to 94 |
| C#Cc1ccc(-c2ccc(C(F)(F)F)cc2Cl)nc1C(=O)OC [F31, Methyl 6-(2-chloro-4-(trifluoromethyl)phenyl)-3-ethynylpicolinate] | 0 to 29 |
